According to the NIST ThermoML archive (doi:10.1016/j.fluid.2015.09.003):
Numbers after ± are expanded uncertainties. One block for each compound: values may come before it.

Assay: activity coefficient (dimensionless); of the first substance listed, at infinite dilution; xn = mol fraction of the nth substance listed
Conditions: 101 kPa, Liquid, Chromatography, x1 = 0

Compound: CC(=O)CC(C)C [4-methylpentan-2-one] + CCOS(=O)(=O)[O-].CC[n+]1cccc(C)c1
activity coefficient (333.2 K): 6.97 ± 0.32
activity coefficient (343.15 K): 6.99 ± 0.32
activity coefficient (353.08 K): 7.03 ± 0.32
activity coefficient (363.06 K): 7.05 ± 0.32
activity coefficient (372.99 K): 7.12 ± 0.33

Compound: CC(C)=O [acetone] + CCOS(=O)(=O)[O-].CC[n+]1cccc(C)c1
activity coefficient (323.24 K): 1.78 ± 0.08
activity coefficient (333.19 K): 1.8 ± 0.08
activity coefficient (343.16 K): 1.84 ± 0.08
activity coefficient (353.11 K): 1.88 ± 0.08
activity coefficient (363.08 K): 1.92 ± 0.08
activity coefficient (372.99 K): 1.98 ± 0.09

Compound: CCC(C)O (stereo not given) [butan-2-ol] + CCOS(=O)(=O)[O-].CC[n+]1cccc(C)c1
activity coefficient (333.19 K): 1.27 ± 0.04
activity coefficient (343.14 K): 1.25 ± 0.04
activity coefficient (353.1 K): 1.24 ± 0.04
activity coefficient (363.05 K): 1.23 ± 0.04
activity coefficient (373 K): 1.23 ± 0.04

Compound: CCC(C)=O [butanone] + CCOS(=O)(=O)[O-].CC[n+]1cccc(C)c1
activity coefficient (323.25 K): 2.7 ± 0.12
activity coefficient (333.2 K): 2.74 ± 0.12
activity coefficient (343.16 K): 2.78 ± 0.13
activity coefficient (353.1 K): 2.84 ± 0.13
activity coefficient (363.07 K): 2.88 ± 0.13
activity coefficient (372.99 K): 2.95 ± 0.13

Compound: CCO [ethanol] + CCOS(=O)(=O)[O-].CC[n+]1cccc(C)c1
activity coefficient (333.18 K): 0.6 ± 0.03
activity coefficient (343.13 K): 0.59 ± 0.03
activity coefficient (353.1 K): 0.58 ± 0.03
activity coefficient (363.09 K): 0.58 ± 0.03
activity coefficient (373.01 K): 0.57 ± 0.03

Compound: CO [methanol] + CCOS(=O)(=O)[O-].CC[n+]1cccc(C)c1
activity coefficient (323.26 K): 0.32 ± 0.04
activity coefficient (333.2 K): 0.33 ± 0.04
activity coefficient (343.15 K): 0.33 ± 0.04
activity coefficient (353.11 K): 0.33 ± 0.04
activity coefficient (363.07 K): 0.33 ± 0.04
activity coefficient (373 K): 0.33 ± 0.04

Compound: CCCCCO [pentan-1-ol] + CCOS(=O)(=O)[O-].CC[n+]1cccc(C)c1
activity coefficient (353.09 K): 1.66 ± 0.07
activity coefficient (363.05 K): 1.59 ± 0.06
activity coefficient (373.01 K): 1.52 ± 0.06

Compound: CC(C)O [propan-2-ol] + CCOS(=O)(=O)[O-].CC[n+]1cccc(C)c1
activity coefficient (323.24 K): 1 ± 0.03
activity coefficient (333.19 K): 0.97 ± 0.03
activity coefficient (343.14 K): 0.96 ± 0.03
activity coefficient (353.09 K): 0.94 ± 0.03
activity coefficient (363.06 K): 0.93 ± 0.03
activity coefficient (373 K): 0.92 ± 0.03

Continued, values first:

activity coefficient (333.2 K): 4.51 ± 0.21
activity coefficient (343.15 K): 4.62 ± 0.21
activity coefficient (353.09 K): 4.73 ± 0.22
activity coefficient (363.06 K): 4.79 ± 0.22
activity coefficient (372.99 K): 4.95 ± 0.23
Compound: CC(=O)C(C)C [3-methyl-2-butanone] + CCOS(=O)(=O)[O-].CC[n+]1cccc(C)c1

activity coefficient (353.1 K): 1.13 ± 0.03
activity coefficient (363.06 K): 1.1 ± 0.03
activity coefficient (373 K): 1.08 ± 0.03
Compound: CCCCO [butan-1-ol] + CCOS(=O)(=O)[O-].CC[n+]1cccc(C)c1

activity coefficient (333.2 K): 4.35 ± 0.2
activity coefficient (343.15 K): 4.38 ± 0.2
activity coefficient (353.12 K): 4.44 ± 0.2
activity coefficient (363.05 K): 4.46 ± 0.2
activity coefficient (372.99 K): 4.52 ± 0.21
Compound: CCCC(C)=O [pentan-2-one] + CCOS(=O)(=O)[O-].CC[n+]1cccc(C)c1

activity coefficient (333.18 K): 0.81 ± 0.03
activity coefficient (343.13 K): 0.8 ± 0.03
activity coefficient (353.1 K): 0.8 ± 0.03
activity coefficient (363.06 K): 0.79 ± 0.03
activity coefficient (373 K): 0.78 ± 0.03
Compound: CCCO [propan-1-ol] + CCOS(=O)(=O)[O-].CC[n+]1cccc(C)c1
